From patent US20220048896A1, “PYRAZOLE COMPOUNDS SUBSTITUTED WITH HETEROARYL AND PHARMACEUTICAL USE THEREOF” (Japan Tobacco Inc., priority 2018, published 2022)

Columns and labels:
Type in all cases: cell-based
[1] = system: Salmonella typhimurium TA98; test: Ames test (reverse mutation test), strain TA98; conditions: for potential to induce reverse mutations, TA98: in the presence of S9 mix
Procedure: (§1) Metabolites 1 to 3 and Metabolites A to E were each tested herein. The purpose of this test is to evaluate the potential of each metabolite to induce reverse mutations in the standard strains of Salmonella typhimurium (TA98, TA1537, TA100, and TA1535) and Escherichia coli (WP2uvrA), in either the presence or absence of a rat liver metabolic activation system (S9 mix).
(§2) The solvent used herein was dimethyl sulfoxide (DMSO, 100 μL/plate).
(§3) The test was performed by the pre-incubation method with or without S9 mix. When the test was performed without S9 mix, sodium phosphate buffer solution (pH 7.4) was added.
(§4) 0.5 mL of S9 mix or 0.5 mL of 0.1 mol/L sodium phosphate buffer solution (pH 7.4), and 0.1 mL of the bacterial culture solution were added to a test tube containing 0.1 mL of the negative control formulation (DMSO alone), the metabolite, or the positive control formulation. The mixtures were pre-incubated at 37° C. for 20 minutes while shaking. After the pre-incubation period, 2 mL of top agar were added and the mixtures were vortex-mixed and seeded onto plates. Two plates per treatment were used. Each plate was incubated at 37±1° C. for 48 hours or more and the revertant colonies were counted. The mean number of revertant colonies for each treatment plate was then calculated. The presence or absence of growth inhibition due to any antibacterial effect of the test article and precipitation of the test article was observed grossly or under a stereomicroscope. […] Evaluation was based on mean values with no statistical comparisons being used.

[2] = system: Salmonella typhimurium TA1537; test: Ames test (reverse mutation test), strain TA1537
Procedure: as §1, §2, §3, §4

[3] = system: Salmonella typhimurium TA1535; test: Ames test (reverse mutation test), strain TA1535
Procedure: as §1, §2, §3
(§5) 0.5 mL of S9 mix or 0.5 mL of 0.1 mol/L sodium phosphate buffer solution (pH 7.4), and 0.1 mL of the bacterial culture solution were added to a test tube containing 0.1 mL of the negative control formulation (DMSO alone), the metabolite, or the positive control formulation. The mixtures were pre-incubated at 37° C. for 20 minutes while shaking. After the pre-incubation period, 2 mL of top agar were added and the mixtures were vortex-mixed and seeded onto plates. Two plates per treatment were used. Each plate was incubated at 37±1° C. for 48 hours or more and the revertant colonies were counted. The mean number of revertant colonies for each treatment plate was then calculated. […]

[4] = system: Salmonella typhimurium TA100; test: Ames test (reverse mutation test), strain TA100; conditions: in the presence of S9 mix
Procedure: as §1, §2, §3, §4

Escherichia coli WP2uvrA = test: Ames test (reverse mutation test), strain WP2uvrA; conditions: in the absence of S9 mix
Procedure: as §1, §2, §3, §5

CC(C)(Oc1cc(F)cc(-c2cc(N)nn2-c2cnc(C(F)(F)F)nc2)c1)C(F)(F)F [Metabolite 1]
Number of revertant colonies TA98 ([1]; S9 mix +, 6.9 μg/plate): 37
Number of revertant colonies TA98 ([1]; S9 mix +, 21 μg/plate): 39
Number of revertant colonies TA98 ([1]; S9 mix +, 62 μg/plate): 40
Number of revertant colonies TA98 ([1]; S9 mix +, 185 μg/plate): 40
Number of revertant colonies TA98 ([1]; S9 mix +, 556 μg/plate): 34
Number of revertant colonies TA98 ([1]; S9 mix +, 1667 μg/plate): 27
Number of revertant colonies TA98 ([1]; S9 mix +, 5000 μg/plate): 21
Number of revertant colonies TA98 ([1]; S9 mix −, 6.9 μg/plate): 32
Number of revertant colonies TA98 ([1]; S9 mix −, 21 μg/plate): 32
Number of revertant colonies TA98 ([1]; S9 mix −, 62 μg/plate): 31
Number of revertant colonies TA98 ([1]; S9 mix −, 185 μg/plate): 29
Number of revertant colonies TA98 ([1]; S9 mix −, 556 μg/plate): 30
Number of revertant colonies TA98 ([1]; S9 mix −, 1667 μg/plate): 15
Number of revertant colonies TA98 ([1]; S9 mix −, 5000 μg/plate): 7

Nc1cc(-c2cc(F)cc(OC(F)(F)F)c2)n(-c2cncc(F)c2)n1 [Metabolite 2]
Number of revertant colonies TA98 ([1]; S9 mix +, 6.9 μg/plate): 35
Number of revertant colonies TA98 ([1]; S9 mix +, 21 μg/plate): 37
Number of revertant colonies TA98 ([1]; S9 mix +, 62 μg/plate): 35
Number of revertant colonies TA98 ([1]; S9 mix +, 185 μg/plate): 36
Number of revertant colonies TA98 ([1]; S9 mix +, 556 μg/plate): 22
Number of revertant colonies TA98 ([1]; S9 mix +, 1667 μg/plate): 20
Number of revertant colonies TA98 ([1]; S9 mix +, 5000 μg/plate): 16
Number of revertant colonies TA98 ([1]; S9 mix −, 6.9 μg/plate): 30
Number of revertant colonies TA98 ([1]; S9 mix −, 21 μg/plate): 30
Number of revertant colonies TA98 ([1]; S9 mix −, 62 μg/plate): 28
Number of revertant colonies TA98 ([1]; S9 mix −, 185 μg/plate): 28
Number of revertant colonies TA98 ([1]; S9 mix −, 556 μg/plate): 12
Number of revertant colonies TA98 ([1]; S9 mix −, 1667 μg/plate): 9
Number of revertant colonies TA98 ([1]; S9 mix −, 5000 μg/plate): 7

Nc1cc(-c2cc(F)cc(OC(F)(F)F)c2)n(-c2cncc(C(F)(F)F)c2)n1 [Metabolite 3]
Number of revertant colonies TA98 ([1]; S9 mix +, 6.9 μg/plate): 36
Number of revertant colonies TA98 ([1]; S9 mix +, 21 μg/plate): 38
Number of revertant colonies TA98 ([1]; S9 mix +, 62 μg/plate): 38
Number of revertant colonies TA98 ([1]; S9 mix +, 185 μg/plate): 33
Number of revertant colonies TA98 ([1]; S9 mix +, 556 μg/plate): 27
Number of revertant colonies TA98 ([1]; S9 mix +, 1667 μg/plate): 25
Number of revertant colonies TA98 ([1]; S9 mix +, 5000 μg/plate): 17
Number of revertant colonies TA98 ([1]; S9 mix −, 6.9 μg/plate): 29
Number of revertant colonies TA98 ([1]; S9 mix −, 21 μg/plate): 28
Number of revertant colonies TA98 ([1]; S9 mix −, 62 μg/plate): 29
Number of revertant colonies TA98 ([1]; S9 mix −, 185 μg/plate): 26
Number of revertant colonies TA98 ([1]; S9 mix −, 556 μg/plate): 24
Number of revertant colonies TA98 ([1]; S9 mix −, 1667 μg/plate): 18
Number of revertant colonies TA98 ([1]; S9 mix −, 5000 μg/plate): 14

CC(C)(OCc1cc(F)cc(-c2cc(N)nn2-c2ccc(F)cc2)c1)C(F)(F)F [Metabolite A, reference compound]
potential to induce reverse mutations, TA1537 ([2]; in the presence of S9 mix): had potential to induce reverse mutations
potential to induce reverse mutations, TA98 [1]: had potential to induce reverse mutations

Nc1cc(-c2cccc(OCC(F)(F)F)c2)n(-c2ccc(F)cc2)n1 [Metabolite B]
potential to induce reverse mutations, TA1537 ([2]; in the absence of S9 mix): had potential to induce reverse mutations
potential to induce reverse mutations, TA1537 ([2]; in the presence of S9 mix): had potential to induce reverse mutations
potential to induce reverse mutations, TA1535 ([3]; in the presence of S9 mix): had potential to induce reverse mutations
potential to induce reverse mutations, TA98 [1]: had potential to induce reverse mutations
potential to induce reverse mutations, TA100 [4]: had potential to induce reverse mutations

Cc1ccc(-n2nc(N)cc2-c2cccc(OCC(F)(F)F)c2)cc1 [Metabolite C]
potential to induce reverse mutations, TA1537 ([2]; in the presence of S9 mix): had potential to induce reverse mutations
potential to induce reverse mutations, WP2uvrA (Escherichia coli WP2uvrA): had potential to induce reverse mutations
potential to induce reverse mutations, TA98 [1]: had potential to induce reverse mutations
potential to induce reverse mutations, TA100 [4]: had potential to induce reverse mutations

Nc1cc(-c2cccc(OC(F)(F)F)c2)n(-c2cccc(F)c2)n1 [Metabolite D]
potential to induce reverse mutations, TA1535 ([3]; in the absence of S9 mix): had potential to induce reverse mutations
potential to induce reverse mutations, TA100 [4]: had potential to induce reverse mutations

Cc1cccc(-n2nc(N)cc2-c2cccc(OC(F)(F)F)c2)c1 [Metabolite E]
potential to induce reverse mutations, TA1537 ([2]; in the presence of S9 mix): had potential to induce reverse mutations
potential to induce reverse mutations, TA98 [1]: had potential to induce reverse mutations
potential to induce reverse mutations, TA100 [4]: had potential to induce reverse mutations
